Measured values taken from US20240190865A1, “T-TYPE CALCIUM CHANNEL ANTAGONISTS AND USES THEREOF” (THE BOARD OF TRUSTEES OF THE LELAND STANFORD JUNIOR …, priority 2021, published 2024).
“Also recorded” adds a separate entry of the source. Read-outs that look alike come from different tables or passages of the source.

Columns and labels:
[1] = molecular target: Cav3.2 (Homo sapiens (Human), UniProt O95180); assay: In vitro patch clamp assay (SyncroPatch 384PE); type: cell-based; conditions: HEK293 cells
Chain of Cav3.2 (O95180 whole entry): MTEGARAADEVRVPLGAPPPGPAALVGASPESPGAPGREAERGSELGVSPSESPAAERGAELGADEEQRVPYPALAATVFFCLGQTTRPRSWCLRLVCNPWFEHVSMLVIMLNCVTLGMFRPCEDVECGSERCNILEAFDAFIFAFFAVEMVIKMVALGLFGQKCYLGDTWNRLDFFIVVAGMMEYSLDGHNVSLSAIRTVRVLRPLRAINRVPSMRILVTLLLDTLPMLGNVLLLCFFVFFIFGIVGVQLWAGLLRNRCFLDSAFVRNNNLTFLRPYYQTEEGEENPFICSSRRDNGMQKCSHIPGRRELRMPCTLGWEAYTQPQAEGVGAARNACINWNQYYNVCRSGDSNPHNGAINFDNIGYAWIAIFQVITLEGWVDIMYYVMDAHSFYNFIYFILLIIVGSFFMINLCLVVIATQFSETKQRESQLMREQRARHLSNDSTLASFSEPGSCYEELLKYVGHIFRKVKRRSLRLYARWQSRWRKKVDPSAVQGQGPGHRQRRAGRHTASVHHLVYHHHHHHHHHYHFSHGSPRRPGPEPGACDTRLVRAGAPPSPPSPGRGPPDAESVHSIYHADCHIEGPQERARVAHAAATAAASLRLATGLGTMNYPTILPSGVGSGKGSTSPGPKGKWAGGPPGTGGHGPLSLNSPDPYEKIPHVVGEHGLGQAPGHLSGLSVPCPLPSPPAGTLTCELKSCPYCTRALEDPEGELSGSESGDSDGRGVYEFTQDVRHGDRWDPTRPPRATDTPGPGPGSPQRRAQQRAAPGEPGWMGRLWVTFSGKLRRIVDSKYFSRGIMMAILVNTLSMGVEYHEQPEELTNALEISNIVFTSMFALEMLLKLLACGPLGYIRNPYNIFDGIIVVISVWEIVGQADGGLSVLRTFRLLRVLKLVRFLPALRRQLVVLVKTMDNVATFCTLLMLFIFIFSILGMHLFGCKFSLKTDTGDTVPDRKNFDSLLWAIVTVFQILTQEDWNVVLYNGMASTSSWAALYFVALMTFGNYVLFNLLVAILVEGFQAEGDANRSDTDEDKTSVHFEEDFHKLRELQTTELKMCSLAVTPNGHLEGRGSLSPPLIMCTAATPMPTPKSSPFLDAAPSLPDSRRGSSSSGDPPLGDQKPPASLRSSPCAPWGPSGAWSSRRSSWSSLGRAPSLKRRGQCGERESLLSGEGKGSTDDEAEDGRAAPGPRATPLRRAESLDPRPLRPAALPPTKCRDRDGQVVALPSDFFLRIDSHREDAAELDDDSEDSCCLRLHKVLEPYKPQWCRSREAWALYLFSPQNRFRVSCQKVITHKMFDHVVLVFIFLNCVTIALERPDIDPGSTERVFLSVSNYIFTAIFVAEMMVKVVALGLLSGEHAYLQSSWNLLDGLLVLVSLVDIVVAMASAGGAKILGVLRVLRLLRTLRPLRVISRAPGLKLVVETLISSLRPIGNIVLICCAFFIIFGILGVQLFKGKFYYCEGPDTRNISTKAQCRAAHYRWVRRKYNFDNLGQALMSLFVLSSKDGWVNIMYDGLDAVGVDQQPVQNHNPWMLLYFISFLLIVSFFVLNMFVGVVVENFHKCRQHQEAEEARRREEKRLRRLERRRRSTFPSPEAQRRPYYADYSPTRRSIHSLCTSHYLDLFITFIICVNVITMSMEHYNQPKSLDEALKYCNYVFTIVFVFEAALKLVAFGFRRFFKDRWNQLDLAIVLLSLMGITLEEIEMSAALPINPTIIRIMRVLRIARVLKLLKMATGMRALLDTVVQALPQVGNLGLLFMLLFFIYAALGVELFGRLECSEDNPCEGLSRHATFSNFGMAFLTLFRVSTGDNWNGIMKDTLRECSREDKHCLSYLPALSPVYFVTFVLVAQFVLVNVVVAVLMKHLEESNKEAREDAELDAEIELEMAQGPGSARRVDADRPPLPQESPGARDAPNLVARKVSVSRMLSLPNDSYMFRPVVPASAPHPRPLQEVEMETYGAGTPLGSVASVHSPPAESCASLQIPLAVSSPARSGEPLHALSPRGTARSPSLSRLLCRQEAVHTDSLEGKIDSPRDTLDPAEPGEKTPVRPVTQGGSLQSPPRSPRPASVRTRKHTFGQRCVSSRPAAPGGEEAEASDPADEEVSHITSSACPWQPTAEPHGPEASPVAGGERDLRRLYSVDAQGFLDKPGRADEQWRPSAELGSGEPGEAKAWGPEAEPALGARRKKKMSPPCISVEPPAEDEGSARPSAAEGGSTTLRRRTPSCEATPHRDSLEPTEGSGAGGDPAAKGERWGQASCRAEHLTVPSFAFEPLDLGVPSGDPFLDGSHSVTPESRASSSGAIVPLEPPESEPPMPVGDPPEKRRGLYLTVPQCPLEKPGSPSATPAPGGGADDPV
Summary of the method: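 Whole-cell patch clamp on HEK293 cells kept under G418 selection, run on the automated SyncroPatch 384PE. Cells were detached with Accutase, allowed 10 min recovery at 37 °C, and resuspended in HB-PS extracellular buffer before membrane currents were recorded.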

[2] = tested on: Miro1; assay: Rescue of Miro1 deficit in P301L tau donor fibroblasts (FCCP challenge, Miro1 immunocytochemistry); type: cell-based, human
Experimental: The compound of Example 15 rescued Miro1 deficit in P301L tau donor at risk for developing frontotemporal dementia (FTD). Method: A fibroblast was obtained from a non-symptomatic at risk carrier of the pathogenic P301L mutation in the MAPT/Tau gene, a highly penetrant risk factor for frontotemporal dementia (FTD). NINDS line ID: ND32956, collected from a person. Fibroblasts were seeded into 96-well assay plates. After 24 hours, cells were pre-treated with either vehicle (DMSO) or a dose-response of Example 15 compound. After 6 hrs of pre-treatment, cells were challenged with the mitochondrial stressor FCCP for 14 hours. After 14 hours of challenge, cells were fixed in paraformaldehyde and a standard immunocytochemistry protocol was followed to stain for Miro1 using a specific antibody. Images were acquired on the Yokogawa CQ1 confocal high-content imaging platform and the signal from the Miro1 antibody was quantified. Average Miro1 signal intensity was quantified from ˜400 cells/condition.
Similar to the method illustrated in Example 64, a Miro1 ratio could be calculated based on the Miro1 level after treatment of fibroblasts with FCCP compared with a control Miro1 level measured from fibroblasts that were not treated.

[3] = In vivo pharmacokinetics in rats; set-up: species or system Sprague-Dawley rats
Experimental: Fasted male Sprague-Dawley rats between 6 to 8 weeks of age were dosed with calcium channel antagonists of the present disclosure to evaluate in vivo pharmacokinetics. Each compound was formulated in 5% DMAC+5% Solutol HS15+90% Saline to yield a solution for dosing. The rats were dosed intravenously (IV) at 1 mg/kg (1 mL/kg) via foot dorsal vein (N=3) or orally (PO) at 10 mg/kg (10 mL/kg) via oral gavage (N=3).
Blood collection: The animals were restrained manually, and approximately 200 μL blood/time point was collected into pre-cooled EDTA-K2 tubes via jugular vein and put on wet ice. The blood sample was centrifuged at 4° C. (2000 g, 5 min) to obtain plasma within 15 min after sample collection. The plasma samples were stored at approximately −70° C. until analysis.

[4] = In vivo pharmacokinetics in dogs; conditions: dog, plasma; male beagle dogs, 1 mg/kg IV and 3 mg/kg PO; read-out: oral bioavailability (F)
Experimental: In vivo experiments were performed in dogs to evaluate certain calcium channel antagonists of the present disclosure. For instance, Example 15 was evaluated in adult male non-naïve beagle dogs (N=6), 8-10 kg, at 1 mg/kg IV and 3 mg/kg PO. The dogs were given free access to food and water for the IV group, were fasted overnight and fed 4 hr post-dosing for the PO group. The IV group was administered Example 15 via cephalic vein injection. The PO group was administered 3 mg/kg Example 15 by oral gavage. Dosing formulations were prepared at 1 mg/mL in 5% dimethylacetamide, 5% Solutol HS 15, 90% saline prior to use.
Blood collection: The animals were restrained manually, and approximately 0.5 mL blood/time point was collected via cephalic vein into pre-cold EDTA-K2 tubes. Blood samples were chilled on wet ice until centrifuged at 4° C. to obtain plasma within 15 minutes of sample collection.

[5] = Brain penetration in mice; type: in vivo; conditions: male C57BL/6 mice; for concentration at 4 h: mouse, brain, 4 hours post-dose
Experimental: Male C57BL/6 mice at 6-8 weeks were dosed once with Example 15 in two experiments (N=3 per timepoint) at 1 mg/kg IV or 10 mg/kg PO, and then compound concentration was measured at various times up to 24 hours. Dosing solutions were prepared of Example 15 in 0.2 mg/mL (IV) or 1 mg/mL (PO) in 5% dimethylacetamide, 5% Solutol HS 15, 90% saline solution prior to use. Compound was administered either IV by tail vein injection or PO by oral gavage.
Blood collection: The animal was restrained manually at the designated time points, approximately 110 μL of blood sample was collected via facial vein into K2EDTA tubes. Blood sample was put on ice and centrifuged at 2000 g for 5 mins to obtain plasma sample within 15 minutes.
Brain collection: After the blood collection, the animals were euthanized via CO2. The whole brain was collected, rinsed with cold saline, dried on filtrate paper, weighed, and snap frozen by placing into dry-ice.
The brain penetrance of Example 15 was calculated using mouse plasma/brain PK and relative mouse plasma and brain homogenate binding. […] For instance, at 4 hours post-dose: Example 15 brain concentration>100 ng/mL (IV); Example 15 brain concentration>1000 ng/mL (PO).

[6] = rat, compared to Example 16 of U.S. Pat. No. 7,875,636
[7] = rat, plasma, male Sprague-Dawley rats, 1 mg/kg IV, read-out: Mean (ng/mL) after 1 mg/kg IV dose
[8] = rat, plasma, male Sprague-Dawley rats, 10 mg/kg PO, read-out: Mean (ng/mL) after 10 mg/kg PO dose

C[C@@H](NC(=O)Cc1ccc(C(F)(F)F)cc1)c1cc2cnn(CC(F)(F)F)c2cn1 [Example 15, (R)—N-(1-(1-(2,2,2-trifluoroethyl)-1H-pyrazolo[3,4-c]pyridin-5-yl)ethyl)-2-(4-(trifluoromethyl)phenyl)acetamide]
IC50 [1]: 163 nM | rescue of Miro1 deficit ([2]; P301L tau donor fibroblasts in response to FCCP): completely rescued Miro1 reduction deficit; also recorded: dose-dependent rescue of Miro1 deficit | IC50 ([2]; P301L tau donor fibroblasts, 6 hrs pre-treatment, FCCP 14 hours, read-out: IC50, rescue of Miro1 reduction deficit): 584 nM | Mean (ng/mL) after 1 mg/kg IV dose ([3]; male Sprague-Dawley rats, 1 mg/kg IV, 24 hr, BQL = below quantitation level): BQL | AUC [3, 6]: higher | Cmax [3, 6]: higher | half-life (t1/2) [3, 6]: about two-fold higher | concentration at 0.25 h [3, 7]: 890 ng/mL | concentration at 0.5 h [3, 7]: 764 ng/mL | concentration at 1 h [3, 7]: 621 ng/mL | concentration at 2 h [3, 7]: 423 ng/mL | concentration at 4 h [3, 7]: 193 ng/mL | concentration at 8 h [3, 7]: 26.3 ng/mL | concentration at 12 h [3, 7]: 4.42 ng/mL | concentration at 0.25 h [3, 8]: 4110 ng/mL | concentration at 0.5 h [3, 8]: 4510 ng/mL | concentration at 1 h [3, 8]: 4710 ng/mL | concentration at 2 h [3, 8]: 5440 ng/mL | concentration at 4 h [3, 8]: 4070 ng/mL | concentration at 8 h [3, 8]: 1240 ng/mL | concentration at 12 h [3, 8]: 329 ng/mL | concentration at 24 h ([3]; rat, plasma, male Sprague-Dawley rats, 10 mg/kg PO, 24 hr, read-out: Mean (ng/mL) after 10 mg/kg PO dose): 2.49 ng/mL | bioavailability [4]: > 50% | brain penetration ([5]; IV and PO experiments): measurable brain penetration | concentration at 4 h ([5]; 1 mg/kg IV): > 100 ng/mL | concentration at 4 h ([5]; 10 mg/kg PO): > 1000 ng/mL
